Measurements from patent US20230136702A1, “Inhibitors of Human Herpesviruses” (The Governors of the University of Alberta, priority 2020, published 2023).
Like-named read-outs stand apart in the source and are kept apart here.

Tests used:
[1] = target: T1, HCMV DNA polymerase (UL54) (Human cytomegalovirus, UniProt P08546); assay: HCMV DNA polymerase enzyme inhibition assay (ProFoldin, fluorescence); format: biochemical; settings: 37° C., duplicate, max 40 μM
T1 construct: 6His (C); made in house; host or cells: Sf9 insect cells (baculovirus, pFastBac)
Procedure: The HCMV DNA polymerase assay was developed by ProFoldin. The assay detects the formation of DNA from the DNA polymerase reaction in the presence of a DNA template, dATP and dGTP. The formation of the DNA is detected by using a fluorescence method. The fluorescence intensity increases when DNA is generated by the enzyme reaction.
A time-course experiment was performed aside the enzyme inhibition assay to ensure the assay was sensitive to the enzyme inhibition. The wells for the time-course experiment contained 1 μL of DMSO and the same reaction mixture as that in the enzyme inhibition assay. The time-course data varied between plates. The reactions were stopped when the fluorescence reached a value of about 3700 for each plate.
Exemplary solid compounds (e.g., as described herein) were dissolved in DMSO to make […] stock solutions. PFA (phosphonoformic acid or phosphonomethanoic acid) was used as a positive control. The compound mother plates were prepared at 50× concentrated compound concentrations with a 2-fold serial dilution. All the exemplary compounds except PFA were diluted in DMSO. PFA was diluted in water. The maximum compound concentration was 2 mM that gave the final concentration of 40 μM in the assay. One microliter of the 50× stock solutions was transferred into the assay plates. Three copies of assay plates were prepared, two for HCMV DNA polymerase assay and one for compound background control.
The following is the protocol for enzyme inhibition performed at 37° C.:
1. Prepared a premix composed of 35347 μL of H2O, 5220 μL of 10× assay buffer and 149 μL of 350×HCMV DNA polymerase.
2. Added 39 μL of the premix into the wells with 1 μL of the compound. Incubated the mixture for at least 5 min.
3. Added 10 μL of 5×dNTP (0.1 mM), 5×DNA template solutions into each well and incubated the solution until the fluorescence value reached a value about 3700 for the DMSO-only control wells.
4. Added 50 μL of the 1× dye into the wells.
5. Read the fluorescence at emission wavelength of 535 nm and excitation wavelength of 485 nm.
For the compound background reading, added 99 μL of water in the wells with 1 μL of compounds and read the fluorescence. […] The 0% inhibition value F0 was from the wells with DMSO (no inhibitor).
The background values were subtracted from the fluorescence reading to get the net fluorescence values. The net fluorescence values were used for calculation of the percentage inhibition.
The assay was performed in duplicate for the test article at […], 1.25, 0.625, 0.313, 0.156 and 0.078 μM. The IC50 curves were obtained by fitting the percentage inhibition values with the compound concentrations using Prism GraphPad software.

[2] = tested on: HCMV US3-6-EGFP-HCMV-AD169 strain; assay: In vitro inhibitory (antiviral) activity against HCMV, GFP reporter in MRC5 cells; format: cell-based, Human cytomegalovirus (HCMV); settings: Human betaherpesvirus 5, AD169, MRC5, 96 h, read-out: HCMV Antiviral EC50 range
Procedure: (§1) Exemplary compounds (e.g., as described herein) were prepared as 20 mM stock solutions with DMSO. Reference compound was ganciclovir (Sigma). Compounds were tested at 8 concentrations, 3-fold serial dilutions, in duplicate for EC50 and CC50 determinations. The highest testing concentrations of the exemplary compounds and reference compound were 40 μM and 100 μM, respectively. The final concentration of DMSO in the cell culture was 0.5%.
HCMV US3-6-EGFP-HCMV-AD169 strain was obtained from Institute Pasteur of Shanghai, CAS. The virus contains GFP as a reporter of the viral replication.
(§2) MRC5 cells (ATCC CCL-171) was obtained from the ATCC and maintained in the EMEM (Sigma) supplemented with 10% FBS (HyClone), 1% L-glutamine (Gibco), 1% NEAA (Gibco), and 1% PS (Hyclone). Reagent:
In 96-well plates, MRC5 cells were seeded at 20,000 cells per well and cultured at 37° C. and 5% C02 overnight. Next day, compounds (8 concentrations, 3-fold dilutions, in duplicate) and US3-6-EGFP-HCMV-AD169 (MOI=0.1) were added to the cells. The resulting cultures were incubated at 37° C. and 5% C02 for 4 days. Fluorescence intensity was determined by Acumen Cellista (TTP LabTech). The antiviral activity of each compound was calculated based on the inhibition of expression of GFP at each concentration normalized by the cell control (cells without virus infection or compound treatment).
(§3) Antiviral activity and cytotoxicity of the compounds were expressed as % Inhibition and % Viability, respectively, and calculated with the formulas below:
Inhibition (%)=100−(Raw dataCPD−AverageCC)/(AverageVC−AverageCC)*100
(§4) Raw dataCPD indicates the values of the compound-treated wells; AverageVC, AverageCC and AverageMC indicate the average values of the virus control (cells infected with virus, without compound treatment), cell control and medium control wells, respectively.
(§5) EC50 and CC50 values were calculated using the GraphPad Prism software.

[3] = Cytotoxicity in MRC5 cells without virus infection (CCK8); format: cell-based; settings: human
Procedure: as §1, §2
Cytotoxicity of the compounds was assessed under the same conditions, but without virus infection, in parallel. Cell viability was measured with CCK8 following the manufacturer's manual. CC50 values were then calculated based on cytotoxicity at the test concentrations normalized by the medium control (medium only).
as §3
Viability (%)=(Raw dataCPD−AverageMC)/(AverageCC−AverageMC)*100
as §4, §5

hERG potassium channel = target: T2, hERG potassium channel (Homo sapiens, UniProt Q12809); assay: Inhibition of hERG potassium channel, automated patch clamp (SyncroPatch 384PE) in CHO cells; format: cell-based
T2 construct: host or cells: CHO cells stably expressing hERG
Procedure: This automated patch clamp method (SyncroPatch 384PE) CHO cells stably expressing hERG potassium channels from Sophion Biosciences were used for this test.
The cells were cultured in a humidified and air-controlled (5% C02) incubator at 37° C.
The CHO cells which were at least two days after plating and more than 75% confluent would be used for experiments. Before testing, cells were harvested using TrypLE and resuspended in the physiological solution at the room temperature.
For the electrophysiological recordings the following solutions were used (Table 5). The physiological solution and external solution were prepared at least one month. The intracellular solution was prepared in batches aliquoted, and stored at 4° C. until used.
Exemplary compounds (e.g., as described herein) were dissolved in 100% DMSO to obtain stock solutions for different test concentrations. Then the stock solutions were further diluted into external solution to achieve final concentrations for testing. Visual check for precipitation was conducted before testing. Final DMSO concentration in external solution was not more than 0.30% for the compounds.
From this holding potential of −80 mV, the voltage was first stepped to −50 mV for 80 ms for leak subtraction, and then stepped to +20 mV for 4800 ms to open hERG channels. After that, the voltage was stepped back down to −50 mV for 5000 ms, causing a “rebound” or tail current, which was measured and collected for data analysis. Finally, the voltage was stepped back to the holding potential (−80 mV, 1000 ms). This voltage command protocol was repeated every 20000 msec. This command protocol was performed continuously during the test (vehicle control and test compound).
hERG SyncroPatch assay was conducted at room temperature. The Setup, Prime Chip, Catch and Seal Cells, Amplifier Settings, Voltage and Application Protocols were established with Biomek Software (Nanion).
One addition of 40 μL of the vehicle was applied, followed by 300s for a baseline period. Then the doses of exemplary test compounds were added with 40 μL. The exposure of test compound at each concentration was no less than 300s. […] Five concentrations (0.494 μM, 1.48 μM, 4.44 μM, 13.33 μM and 40.00 μM) were tested for each compound. Minimum 2 replicates per concentration were obtained.
Within each well recording, percent of control values were calculated for each test compound concentration current response based on peak current in presence of reference control (current response/peak current)×100%. The Dose-Response curves were fit to the standard Hill equation as shown below:
Ipost cpd/Ipre cpd=Bottom+(Top−Bottom)/(1+10^((Log IC50−X)*HillSlope))
Where X is the logarithm of concentration, Ipost cpd/Ipre cpd is the normalized peak current amplitude, Top is 1 and Bottom is equal to 0.
Curve-fitting and IC50 calculations were performed by GraphPad Prism 5.0. If the inhibition obtained at the lowest concentration tested was over 50%, or at the highest concentration tested was less than 50%, we reported the IC50 as less than lowest concentration, or higher than highest concentration, respectively.

[4] = CHO cells stably expressing hERG, room temperature, 0.494-40.00 μM, read-out: CHO-hERG Activity Range

T2 sequence (Q12809 whole entry): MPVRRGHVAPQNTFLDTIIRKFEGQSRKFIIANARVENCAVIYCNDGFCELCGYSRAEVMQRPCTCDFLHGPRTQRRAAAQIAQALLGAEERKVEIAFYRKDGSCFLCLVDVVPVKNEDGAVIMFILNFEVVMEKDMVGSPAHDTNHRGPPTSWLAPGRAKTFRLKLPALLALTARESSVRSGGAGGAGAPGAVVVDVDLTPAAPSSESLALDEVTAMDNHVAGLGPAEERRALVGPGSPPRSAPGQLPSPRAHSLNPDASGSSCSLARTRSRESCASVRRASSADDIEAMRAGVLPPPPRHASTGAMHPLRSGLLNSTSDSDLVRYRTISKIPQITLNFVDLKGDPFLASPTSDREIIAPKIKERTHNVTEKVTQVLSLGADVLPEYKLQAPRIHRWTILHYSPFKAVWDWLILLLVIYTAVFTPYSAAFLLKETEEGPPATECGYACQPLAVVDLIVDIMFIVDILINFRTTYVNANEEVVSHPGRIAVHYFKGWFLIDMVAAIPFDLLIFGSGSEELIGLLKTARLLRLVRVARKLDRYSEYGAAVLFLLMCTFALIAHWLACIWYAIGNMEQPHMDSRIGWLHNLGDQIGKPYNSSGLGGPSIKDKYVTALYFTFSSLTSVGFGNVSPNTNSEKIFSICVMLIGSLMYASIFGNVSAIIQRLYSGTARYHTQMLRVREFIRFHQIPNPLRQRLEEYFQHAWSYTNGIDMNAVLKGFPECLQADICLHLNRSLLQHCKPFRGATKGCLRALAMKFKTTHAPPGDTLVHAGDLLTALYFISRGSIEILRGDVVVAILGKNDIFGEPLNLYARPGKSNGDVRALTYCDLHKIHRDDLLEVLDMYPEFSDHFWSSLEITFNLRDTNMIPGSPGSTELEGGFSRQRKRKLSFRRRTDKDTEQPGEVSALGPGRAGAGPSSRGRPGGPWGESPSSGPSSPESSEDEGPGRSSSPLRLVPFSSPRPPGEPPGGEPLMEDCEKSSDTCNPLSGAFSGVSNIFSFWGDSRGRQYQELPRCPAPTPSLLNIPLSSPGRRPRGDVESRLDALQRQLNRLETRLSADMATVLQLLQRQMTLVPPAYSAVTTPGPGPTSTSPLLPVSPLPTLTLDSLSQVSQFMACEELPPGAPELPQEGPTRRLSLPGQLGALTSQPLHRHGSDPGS
T1 sequence (P08546 whole entry): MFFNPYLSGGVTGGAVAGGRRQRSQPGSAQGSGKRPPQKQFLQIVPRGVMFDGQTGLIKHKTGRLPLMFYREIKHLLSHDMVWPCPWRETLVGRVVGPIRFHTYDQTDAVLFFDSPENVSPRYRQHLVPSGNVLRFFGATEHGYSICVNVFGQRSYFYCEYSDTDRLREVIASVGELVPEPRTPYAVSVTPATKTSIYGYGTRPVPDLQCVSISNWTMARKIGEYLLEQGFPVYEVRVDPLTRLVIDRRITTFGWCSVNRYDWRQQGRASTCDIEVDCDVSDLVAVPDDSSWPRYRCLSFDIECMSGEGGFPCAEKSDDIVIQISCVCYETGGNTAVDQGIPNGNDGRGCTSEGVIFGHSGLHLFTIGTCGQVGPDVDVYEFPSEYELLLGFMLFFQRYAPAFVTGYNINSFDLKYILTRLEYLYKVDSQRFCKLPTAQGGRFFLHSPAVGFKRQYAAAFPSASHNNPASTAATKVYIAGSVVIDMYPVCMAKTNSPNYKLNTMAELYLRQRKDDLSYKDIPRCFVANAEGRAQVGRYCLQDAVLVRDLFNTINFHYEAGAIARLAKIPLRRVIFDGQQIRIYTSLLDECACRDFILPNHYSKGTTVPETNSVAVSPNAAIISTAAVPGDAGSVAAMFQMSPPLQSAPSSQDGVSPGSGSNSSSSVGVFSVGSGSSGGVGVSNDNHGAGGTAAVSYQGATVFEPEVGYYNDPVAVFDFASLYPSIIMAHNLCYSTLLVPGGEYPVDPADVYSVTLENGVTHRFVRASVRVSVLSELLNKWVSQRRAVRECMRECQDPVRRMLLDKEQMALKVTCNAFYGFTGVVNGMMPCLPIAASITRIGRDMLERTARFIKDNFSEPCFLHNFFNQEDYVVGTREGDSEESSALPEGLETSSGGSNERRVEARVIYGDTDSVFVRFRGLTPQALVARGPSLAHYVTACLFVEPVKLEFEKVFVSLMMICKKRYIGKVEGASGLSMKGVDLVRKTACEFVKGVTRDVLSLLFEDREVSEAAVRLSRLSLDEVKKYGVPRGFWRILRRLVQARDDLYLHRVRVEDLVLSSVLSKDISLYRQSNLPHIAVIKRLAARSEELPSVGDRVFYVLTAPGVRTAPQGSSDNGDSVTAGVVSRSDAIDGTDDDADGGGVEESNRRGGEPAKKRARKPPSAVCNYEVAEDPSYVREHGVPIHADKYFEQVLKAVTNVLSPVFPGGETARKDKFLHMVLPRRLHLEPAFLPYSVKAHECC

SMILES | IC50 [1] | EC50 [2] | CC50 at 4 days [3] | IC50 (hERG potassium channel; [4]) | IC50 (hERG potassium channel)
CC1(F)CN(C(=O)Cn2c(=O)c(C(=O)NCc3ccc(Cl)cc3)cc3nc(N4CCCC4=O)cnc32)C1 [Compound 1, N-[(4-chlorophenyl)methyl]-5-[2-(3-fluoro-3-methylazetidin-1-yl)-2-oxoethyl]-6-oxo-2-(2-oxopyrrolidin-1-yl)-5,6-dihydropyrido[2,3-b]pyrazine-7-carboxamide] | < 1 µM | < 1 µM | < 20 µM | > 10 µM | 
CC1(C)CN(C(=O)Cn2c(=O)c(C(=O)NCc3ccc(Cl)cc3)cc3cc(N4CCN(C(C)(C)C(=O)O)C4=O)cnc32)C1 [Compound 45, 2-(3-(6-{[(4-chlorophenyl)methyl]carbamoyl}-8-(2-(3,3-dimethylazetidin-1-yl)-2-oxoethyl)-7-oxo-7,8-dihydro-1,8-naphthyridin-3-yl)-2-oxoimidazolidin-1-yl)-2-methylpropanoic acid] | < 1 µM | < 1 µM | > 40 µM | > 10 µM | 
CC(=O)NCCN1CCN(c2cnc3c(cc(C(=O)NCc4ccc(Cl)cc4)c(=O)n3CC(=O)N3CC(C)(F)C3)n2)C1=O [Compound 19] | < 1 µM | > 1 µM | > 40 µM | > 10 µM | 
CC1(F)CN(C(=O)Cn2c(=O)c(C(=O)NCc3ccc(Cl)cc3)cc3nc(N4CC(=O)NC4=O)cnc32)C1 [Compound 41, N-[(4-chlorophenyl)methyl]-2-(2,4-dioxoimidazolidin-1-yl)-5-[2-(3-fluoro-3-methylazetidin-1-yl)-2-oxoethyl]-6-oxo-5,6-dihydropyrido[2,3-b]pyrazine-7-carboxamide] | < 1 µM | > 1 µM | 23 µM | > 10 µM | 
CC(C(=O)O)N1CCN(c2cnc3c(cc(C(=O)NCc4ccc(Cl)cc4)c(=O)n3CC(=O)N3CC(C)(C)C3)n2)C1=O (centres unmarked) [Compound 46, 2-[3-(7-{[(4-chlorophenyl)methyl]carbamoyl}-5-[2-(3,3-dimethylazetidin-1-yl)-2-oxoethyl]-6-oxo-5,6-dihydropyrido[2,3-b]pyrazin-2-yl)-2-oxoimidazolidin-1-yl]propanoic acid] | < 1 µM | < 1 µM | > 40 µM | > 10 µM | 
CC1(F)CN(C(=O)Cn2c(=O)c(C(=O)NCc3ccc(Cl)cc3)cc3nc(N4CCN(Cc5nnn[nH]5)C4=O)cnc32)C1 [Compound 27, N-[(4-chlorophenyl)methyl]-5-[2-(3-fluoro-3-methylazetidin-1-yl)-2-oxoethyl]-6-oxo-2-{2-oxo-3-[(1H-tetrazol-5-yl)methyl]imidazolidin-1-yl}-5,6-dihydropyrido[2,3-b]pyrazine-7-carboxamide] | < 1 µM | > 1 µM | > 40 µM | > 10 µM | 
CC1(F)CN(C(=O)Cn2c(=O)c(C(=O)NCc3ccc(Cl)cc3)cc3nc(N4CCN(CC(=O)N5CCC5)C4=O)cnc32)C1 [Compound 28, 2-{3-[2-(azetidin-1-yl)-2-oxoethyl]-2-oxoimidazolidin-1-yl}-N-[(4-chlorophenyl)methyl]-5-[2-(3-fluoro-3-methylazetidin-1-yl)-2-oxoethyl]-6-oxo-5,6-dihydropyrido[2,3-b]pyrazine-7-carboxamide] | < 1 µM | < 1 µM | > 40 µM | > 10 µM | 
NCCN1CCN(c2cnc3c(cc(C(=O)NCc4ccc(Cl)cc4)c(=O)n3CC(=O)N3CC4(CC4)C3)n2)C1=O [Compound 36, 2-[3-(2-aminoethyl)-2-oxoimidazolidin-1-yl]-5-[2-(5-azaspiro[2.3]hexan-5-yl)-2-oxoethyl]-N-[(4-chlorophenyl)methyl]-6-oxo-5,6-dihydropyrido[2,3-b]pyrazine-7-carboxamide] | < 1 µM | < 1 µM | 18 µM |  | > 10 µM
CC1(C)CN(C(=O)Cn2c(=O)c(C(=O)NCc3ccc(Cl)cc3)cc3cc(N4CCN(CC(=O)O)C4=O)cnc32)C1 [Compound 7, [3-(6-{[(4-chlorophenyl)methyl]carbamoyl}-8-[2-(3,3-dimethylazetidin-1-yl)-2-oxoethyl]-7-oxo-7,8-dihydro-1,8-naphthyridin-3-yl)-2-oxoimidazolidin-1-yl]acetic acid] |  | > 1 µM | > 40 µM | > 10 µM | 
